Measurements taken from ChEMBL document CHEMBL3228010, “Potential antitumor agents. 29. Quantitative structure-activity relationships for the antileukemic bisquaternary ammonium heterocycles” (J Med Chem, 1979).

Legend:
Bos taurus = organism: Bos taurus; assay: Displacement of ethidium from calf thymus DNA by fluorimetric method
L1210 [1] = assay: Antitumor activity against mouse L1210 cells […] in ip dosed C3H X DBA2 F1 hybrid mouse on day 0 and dosed once daily on days 1 to 5 assessed as increase in life span relative to control; assay type: functional
[2] = Displacement of ethidium from poly[d(A-T)]-poly[d(A-T)] DNA by fluorimetric method
[3] = Displacement of ethidium from poly[d(G-C)]-poly[d(G-C)] DNA (unknown origin) by fluorimetric method
[4] = Lipophilic-hydrophilic balance, Rm of the compound by partition chromatography; assay type: physicochemical
Mus musculus = assay: Toxicity in ip dosed C3H X DBA2 F1 hybrid mouse […] with mouse L1210 cells on day 0 and dosed once daily on days 1 to 5 measured after 50 days; assay type: organism-based; conditions: in vivo, 1200 h
L1210 [5] = assay: Antitumor activity against mouse L1210 cells […] in ip dosed C3H X DBA2 F1 hybrid mouse on day 0 and dosed at LD10 level once daily on days 1 to 5 assessed as increase in life span relative to control; assay type: functional

Row | Compound | C50 (Bos taurus) [µM] | D40 (L1210 [1]) [mg/kg] | C50 [2] [µM] | C50 [3] [µM] | Rm [4] | LD10 (Mus musculus) [mg/kg] | log(ILSmax) (L1210 [5])
1 | C[n+]1cccc(-c2ccc(NC(=O)/C=C/c3ccc(C(=O)Nc4ccc(-c5ccc(-c6ccc(-c7ccc[n+](C)c7)cc6)cc5)cc4)cc3)cc2)c1.Cc1ccc(S(=O)(=O)[O-])cc1.Cc1ccc(S(=O)(=O)[O-])cc1 | 0.3 | 26.9 | 0.13 | 0.46 | -0.75 | 85 | 2.16
2 | Br.C/C(=N\NC(=N)N)c1ccc(NC(=O)c2ccc(Nc3cc[n+](C)c4ccccc34)cc2)cc1.[Br-] | 0.78 | 13 | 0.39 | 1.04 | -0.07 | 33 | 1.91
3 | C[n+]1ccc(Nc2ccc(C(=O)Nc3ccc(Nc4cc[n+](C)c5cc(N)ccc45)cc3)cc2)cc1.Cc1ccc(S(=O)(=O)[O-])cc1.Cc1ccc(S(=O)(=O)[O-])cc1 | 0.43 | 1.5 | 0.12 | 1.04 | -0.04 | 25 | 2.34
4 | CC[n+]1ccc(Nc2ccc(NC(=O)c3ccc(Nc4cc(C)[n+](CC)c5ccc(N)cc45)cc3N)cc2)cc1.[I-].[I-] | 0.5 | 7.2 | 0.31 | 1.17 | 0.34 | 20 | 1.86
5 | CCCC[n+]1cccc(C(=O)Nc2ccc(NC(=O)c3ccc(C(=O)Nc4ccc5c(ccc[n+]5CCCC)c4)cc3)cc2)c1.Cc1ccc(S(=O)(=O)[O-])cc1.Cc1ccc(S(=O)(=O)[O-])cc1 | 2.5 | 12 | 2.1 | 4.2 | 0.65 | 19 | 1.72
6 | C[n+]1ccc(-c2ccc(NC(=O)c3ccc(Nc4cc[n+](C)c5ccccc45)cc3)cc2)cc1.Cc1ccc(S(=O)(=O)[O-])cc1.Cc1ccc(S(=O)(=O)[O-])cc1 | 0.89 | 2.2 | 0.3 | 3 | 0.33 | 15 | 2.08
7 | C[n+]1cccc(NC(=O)c2ccc(NC(=O)c3ccc(Nc4c5ccccc5[n+](C)c5ccc(N)cc45)cc3)cc2)c1.[Cl-].[Cl-] | 0.17 | 9 | 0.09 | 0.25 | 0.44 | 55 | 2.36
8 | COc1cc(C(=O)Nc2ccc[n+](C)c2)ccc1NC(=O)c1ccc(C(=O)Nc2ccc(C(=O)Nc3ccc[n+](C)c3)cc2OC)cc1.Cc1ccc(S(=O)(=O)[O-])cc1.Cc1ccc(S(=O)(=O)[O-])cc1 | 0.84 | 13 | 0.72 | 0.9 | -0.41 | 25 | 1.89
9 | C[n+]1cccc(NC(=O)c2ccc(NC(=O)c3ccc(C(=O)Nc4ccc(-c5ccc(-c6ccc(-c7ccc[n+](C)c7)cc6)cc5)cc4)cc3)cc2)c1.Cc1ccc(S(=O)(=O)[O-])cc1.Cc1ccc(S(=O)(=O)[O-])cc1 | 0.63 | 2.5 | 0.5 | 0.84 | -0.4 | 14 | 2.25
10 | C[n+]1cccc2ccc(NC(=O)c3ccc(NC(=O)c4ccc(C(=O)Nc5ccc6ccc[n+](C)c6c5)cc4)cc3)cc21.Cc1ccc(S(=O)(=O)[O-])cc1.Cc1ccc(S(=O)(=O)[O-])cc1 | 0.16 | 15 | 0.16 | 0.25 | -0.76 | 34 | 1.85
11 | C[n+]1ccc(Nc2ccc(NC(=O)c3ccc(/C=C/C4=NCCCN4)cc3)cc2)c2cc(N)ccc21.Cc1ccc(S(=O)(=O)O)cc1.Cc1ccc(S(=O)(=O)[O-])cc1 | 0.65 | 2 | 0.35 | 0.87 | 0.17 | 7 | 1.9
